According to US20100304967A1, “METHOD OF PROTECTING RICE CROPS” (SYNGENTA CROP PROTECTION, INC., priority 2007, published 2010):

Assays:
rice plants = assay: Example 1: damage to directly sown rice from safener-dressed seed after clodinafop application; type: in vivo, Oryza sativa; settings: for Damage to rice (%) after number of days 5: 5 days after application; for Damage to rice (%) after number of days 10: 10 days after application; for Damage to rice (%) after number of days 15: 15 days after application
Experimental: (§1) 500 g of rice seed material are soaked in water in a plastic dish for 24 hours. After the water has been poured off, the seed material is allowed to dry in air for 1 to 2 hours; 0.025 or 0.25 g of safener of formula (I) or (II) is then added and vigorous shaking is carried out. Sowing is performed 24 hours later.
(§2) 5 days after sowing, the herbicide clodinafop in the form of an EC 100 is applied at a rate of application of 60 g/ha. 5, 10 and 15 days afterwards, the damage to the rice plants that have emerged and to the weeds is determined.

[1] = test system: wild rice (Oryza sativa), Echinochloa crus-galli and Leptochloa chinensis; assay: Example 1: damage to undesirable grasses after clodinafop application; type: in vivo; settings: clodinafop 60 g/ha
Experimental: as §1, §2

cultivated rice = assay: Example 2: damage to cultivated rice with or without safener seed dressing after clodinafop application; type: in vivo, Oryza sativa; settings: for Damage to rice (%) after number of days 5: 5 days; for Damage to rice (%) after number of days 10: 10 days; for Damage to rice (%) after number of days 15: 15 days
Experimental: as §1
as §2, with “60 or 120” for “60”, “determined. For comparison, untreated cultivated rice is tested under the same conditions as an indicator of the behaviour of wild rice.” for “determined.”

[2] = no safener, clodinafop EC 100 60 g/ha applied 5 days after sowing
[3] = cultivated rice without safener (indicator for wild rice), clodinafop 60 g/ha
[4] = cultivated rice without safener (indicator for wild rice), clodinafop 120 g/ha
[5] = safener 0.025 g per 500 g of seed material, clodinafop 60 g/ha
[6] = safener 0.25 g per 500 g of seed material, clodinafop 60 g/ha
[7] = rice seed dressed with safener 0.025 g per 500 g
[8] = rice seed dressed with safener 0.25 g per 500 g
[9] = cultivated rice with 0.025 g of safener (per 500 g seed), clodinafop 60 g/ha
[10] = cultivated rice with 0.025 g of safener (per 500 g seed), clodinafop 120 g/ha
[11] = cultivated rice with 0.25 g of safener (per 500 g seed), clodinafop 60 g/ha
[12] = cultivated rice with 0.25 g of safener (per 500 g seed), clodinafop 120 g/ha

SMILES: C[C@@H](Oc1ccc(Oc2ncc(Cl)cc2F)cc1)C(=O)O [Clodinafop, clodinafop, reference compound]
- Damage to rice (%) after number of days 5 (rice plants; [2]): 68%
- Damage to rice (%) after number of days 10 (rice plants; [2]): 65%
- Damage to rice (%) after number of days 15 (rice plants; [2]): 30%
- Damage to undesirable grasses* (%) ([1]; no safener): 93%
- Damage to rice (%) after number of days 5 (cultivated rice; [3]): 40%
- Damage to rice (%) after number of days 10 (cultivated rice; [3]): 90%
- Damage to rice (%) after number of days 15 (cultivated rice; [3]): 65%
- Damage to rice (%) after number of days 5 (cultivated rice; [4]): 78%
- Damage to rice (%) after number of days 10 (cultivated rice; [4]): 98%
- Damage to rice (%) after number of days 15 (cultivated rice; [4]): 100%

SMILES: COC(=O)c1sccc1NS(=O)(=O)c1nc2nc(C)cc(C)n2n1 [Formula II]
- Damage to rice (%) after number of days 5 (rice plants; [5]): 21%
- Damage to rice (%) after number of days 10 (rice plants; [5]): 9%
- Damage to rice (%) after number of days 15 (rice plants; [5]): 0%
- Damage to rice (%) after number of days 5 (rice plants; [6]): 5%
- Damage to rice (%) after number of days 10 (rice plants; [6]): 3%
- Damage to rice (%) after number of days 15 (rice plants; [6]): 0%
- Damage to undesirable grasses* (%) [1, 7]: 98%
- Damage to undesirable grasses* (%) [1, 8]: 99%
- Damage to rice (%) after number of days 5 (cultivated rice; [9]): 18%
- Damage to rice (%) after number of days 10 (cultivated rice; [9]): 8%
- Damage to rice (%) after number of days 15 (cultivated rice; [9]): 0%
- Damage to rice (%) after number of days 5 (cultivated rice; [10]): 23%
- Damage to rice (%) after number of days 10 (cultivated rice; [10]): 15%
- Damage to rice (%) after number of days 15 (cultivated rice; [10]): 8%
- Damage to rice (%) after number of days 5 (cultivated rice; [11]): 13%
- Damage to rice (%) after number of days 10 (cultivated rice; [11]): 9%
- Damage to rice (%) after number of days 15 (cultivated rice; [11]): 0%
- Damage to rice (%) after number of days 5 (cultivated rice; [12]): 25%
- Damage to rice (%) after number of days 10 (cultivated rice; [12]): 16%
- Damage to rice (%) after number of days 15 (cultivated rice; [12]): 5%

SMILES: CNC(=O)Nc1ccc(S(=O)(=O)NC(=O)c2ccccc2OC)cc1 [Formula I]
- Damage to rice (%) after number of days 5 (rice plants; [5]): 5%
- Damage to rice (%) after number of days 10 (rice plants; [5]): 0%
- Damage to rice (%) after number of days 15 (rice plants; [5]): 0%
- Damage to rice (%) after number of days 5 (rice plants; [6]): 4%
- Damage to rice (%) after number of days 10 (rice plants; [6]): 3%
- Damage to rice (%) after number of days 15 (rice plants; [6]): 0%
- Damage to undesirable grasses* (%) [1, 7]: 100%
- Damage to undesirable grasses* (%) [1, 8]: 98%
